According to paper PMC8044546, “Mycobacterium tuberculosis Thymidylyltransferase RmlA Is Negatively Regulated by Ser/Thr Protein Kinase PknB” (Frontiers in Microbiology, 2021):

Tests used:
RmlA = RmlA (Mycobacterium tuberculosis, UniProt P9WH13)
PknH = PknH (Mycobacterium tuberculosis, UniProt P9WI71)
PknD = PknD (Mycobacterium tuberculosis, UniProt P9WI79)
Chain of PknD (P9WI79 2-664): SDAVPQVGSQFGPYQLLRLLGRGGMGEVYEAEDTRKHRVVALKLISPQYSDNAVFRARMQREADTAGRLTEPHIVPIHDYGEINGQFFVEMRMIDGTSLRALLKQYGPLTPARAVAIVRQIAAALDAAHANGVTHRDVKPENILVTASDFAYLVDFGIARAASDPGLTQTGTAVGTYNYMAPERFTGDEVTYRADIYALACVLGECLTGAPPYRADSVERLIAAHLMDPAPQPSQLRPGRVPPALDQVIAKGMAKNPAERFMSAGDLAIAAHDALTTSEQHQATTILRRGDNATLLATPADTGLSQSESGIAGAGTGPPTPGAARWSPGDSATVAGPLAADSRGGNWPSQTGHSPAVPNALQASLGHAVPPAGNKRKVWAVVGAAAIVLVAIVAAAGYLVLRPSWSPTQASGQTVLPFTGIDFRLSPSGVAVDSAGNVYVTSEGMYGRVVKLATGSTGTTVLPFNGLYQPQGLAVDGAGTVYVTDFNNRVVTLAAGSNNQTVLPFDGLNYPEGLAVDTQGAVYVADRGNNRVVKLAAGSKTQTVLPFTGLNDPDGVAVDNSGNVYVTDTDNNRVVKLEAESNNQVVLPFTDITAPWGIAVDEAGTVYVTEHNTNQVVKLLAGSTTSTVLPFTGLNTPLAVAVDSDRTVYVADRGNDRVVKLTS

Chain of RmlA (P9WH13 whole entry): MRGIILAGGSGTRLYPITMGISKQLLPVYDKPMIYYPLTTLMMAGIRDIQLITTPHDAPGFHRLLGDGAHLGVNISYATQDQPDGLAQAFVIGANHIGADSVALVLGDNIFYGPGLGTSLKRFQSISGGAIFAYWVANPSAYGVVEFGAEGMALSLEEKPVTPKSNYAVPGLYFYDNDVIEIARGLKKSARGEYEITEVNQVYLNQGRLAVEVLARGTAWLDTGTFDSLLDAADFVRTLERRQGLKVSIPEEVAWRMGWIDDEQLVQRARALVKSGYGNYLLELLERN
Chain of PknH (P9WI71 whole entry): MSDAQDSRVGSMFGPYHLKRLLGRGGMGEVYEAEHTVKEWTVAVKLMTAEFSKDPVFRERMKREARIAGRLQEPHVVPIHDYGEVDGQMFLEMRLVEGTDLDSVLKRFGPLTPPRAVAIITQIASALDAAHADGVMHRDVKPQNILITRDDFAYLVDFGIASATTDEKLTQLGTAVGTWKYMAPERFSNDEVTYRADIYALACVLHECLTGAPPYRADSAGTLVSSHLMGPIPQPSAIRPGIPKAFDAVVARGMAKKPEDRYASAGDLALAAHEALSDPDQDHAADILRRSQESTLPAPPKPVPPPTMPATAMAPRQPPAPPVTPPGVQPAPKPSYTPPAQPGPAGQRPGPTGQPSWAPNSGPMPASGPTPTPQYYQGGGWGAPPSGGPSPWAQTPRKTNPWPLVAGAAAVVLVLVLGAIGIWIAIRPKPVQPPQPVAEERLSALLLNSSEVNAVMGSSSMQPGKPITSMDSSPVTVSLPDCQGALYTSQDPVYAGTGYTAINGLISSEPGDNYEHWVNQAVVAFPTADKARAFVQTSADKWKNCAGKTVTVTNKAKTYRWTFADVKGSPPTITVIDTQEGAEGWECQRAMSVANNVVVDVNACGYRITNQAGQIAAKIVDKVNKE

| Structure (SMILES) | malachite green phosphate assay coupled with pyrophosphatase (RmlA) | autophosphorylation assay (PknH) | autophosphorylation assay (PknD) |
| --- | --- | --- | --- |
| O=P(O)(O)O[C@H]1O[C@H](CO)[C@@H](O)[C@H](O)[C@H]1O [D-Glc-1-P] | ability of RmlA to convert D-Glc-1-P and dTTP to D-Glc-dTDP and PPi |  |  |
| Nc1ncnc2c1ncn2[C@@H]1O[C@H](COP(=O)(O)OP(=O)(O)OP(=O)(O)O)[C@@H](O)[C@H]1O [[γ-^32P]ATP] |  | three kinases, i.e., PknB, PknD, and PknH, demonstrated high kinase activities | three kinases, i.e., PknB, PknD, and PknH, demonstrated high kinase activities |
| Cc1cn([C@H]2C[C@H](O)[C@@H](COP(=O)(O)OP(=O)(O)OP(=O)(O)O)O2)c(=O)[nH]c1=O [dTTP] | ability of RmlA to convert D-Glc-1-P and dTTP to D-Glc-dTDP and PPi |  |  |
